Data taken from ChEMBL document CHEMBL4052789, “Essential structure of orexin 1 receptor antagonist YNT-707, Part I: Role of the 4,5-epoxy ring for binding with orexin 1 receptor” (Bioorg Med Chem Lett, 2017).
Active and inactive are the calls of the source. The calls are words filed in the database; no cut-off is given here.

How the values were obtained:
[1] = biological target: T1, Orexin/Hypocretin receptor type 1 (Homo sapiens, UniProt O43613); assay: (§1) Antagonist activity at human OX1R expressed in CHOK1 cells assessed as inhibition of orexin A-induced intracellular Ca2+ release preincubated for 15 mins followed by orexin A addition by Fura 2-AM dye based fluorescence assay; type: functional, cell-based
T1 sequence (O43613 whole entry): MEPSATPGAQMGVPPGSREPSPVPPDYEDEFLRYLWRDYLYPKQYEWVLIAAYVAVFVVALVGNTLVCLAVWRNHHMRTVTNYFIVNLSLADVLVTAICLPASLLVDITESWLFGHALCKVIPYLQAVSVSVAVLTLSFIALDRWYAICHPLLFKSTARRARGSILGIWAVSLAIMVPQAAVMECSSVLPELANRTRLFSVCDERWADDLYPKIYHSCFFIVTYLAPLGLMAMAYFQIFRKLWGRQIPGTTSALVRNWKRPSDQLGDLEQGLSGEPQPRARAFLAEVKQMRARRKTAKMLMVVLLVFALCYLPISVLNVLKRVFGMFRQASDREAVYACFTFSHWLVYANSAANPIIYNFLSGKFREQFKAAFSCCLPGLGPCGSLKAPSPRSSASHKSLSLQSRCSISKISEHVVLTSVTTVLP

Orexin receptor type 2 = biological target: T2, Orexin receptor type 2 (Homo sapiens, UniProt O43614); assay: Antagonist activity at human OX2R expressed in CHOK1 cells assessed as inhibition of orexin A-induced intracellular Ca2+ release preincubated for 15 mins followed by orexin A addition by Fura 2-AM dye based fluorescence assay; type: functional, cell-based
T2 sequence (O43614 whole entry): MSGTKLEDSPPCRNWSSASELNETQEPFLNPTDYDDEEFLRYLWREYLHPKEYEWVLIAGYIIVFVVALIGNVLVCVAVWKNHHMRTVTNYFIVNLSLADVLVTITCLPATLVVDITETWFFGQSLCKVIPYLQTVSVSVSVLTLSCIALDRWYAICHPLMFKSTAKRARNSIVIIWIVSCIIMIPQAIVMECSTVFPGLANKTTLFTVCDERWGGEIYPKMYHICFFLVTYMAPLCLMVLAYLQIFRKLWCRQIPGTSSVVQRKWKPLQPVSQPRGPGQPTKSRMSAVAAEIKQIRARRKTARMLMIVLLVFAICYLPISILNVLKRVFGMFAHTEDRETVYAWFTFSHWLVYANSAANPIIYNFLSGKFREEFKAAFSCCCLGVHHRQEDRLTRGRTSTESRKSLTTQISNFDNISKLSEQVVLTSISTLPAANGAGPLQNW

[2] = biological target: T3, Orexin/Hypocretin receptor type 1 (Homo sapiens) (UniProt O43613); assay: as §1; type: functional, cell-based
T3 sequence (whole entry): T1 sequence (O43613 whole entry)

Homo sapiens = species: Homo sapiens; assay: Selectivity ratio of Ki for human OX2R to Ki for human OX1R

SMILES	IC50 (Orexin receptor type 2) [µM]	Ki [1] [µM]	also measured
CN(C(=O)/C=C/c1ccoc1)[C@@H]1CC[C@@]2(O)[C@H]3Cc4cccc5c4[C@@]2(CCN3S(=O)(=O)c2ccccc2)[C@H]1O5	≥ 10		IC50 [1]: 1.91 µM
COc1ccc2c3c1O[C@H]1[C@H](N(C)C(=O)/C=C/c4ccoc4)CC[C@@]4(O)[C@@H](C2)N(S(=O)(=O)c2ccccc2)CC[C@]314	> 10		
COc1ccc2c3c1O[C@H]1[C@@H](N(C)C(=O)/C=C/c4ccoc4)CC[C@@]4(O)[C@@H](C2)N(S(=O)(=O)c2ccccc2)CC[C@]314	> 10	0.849	
CN(C(=O)/C=C/c1ccoc1)[C@@H]1CC[C@@]2(O)[C@H]3Cc4ccc(OCc5ccccc5)c5c4[C@@]2(CCN3S(=O)(=O)c2ccccc2)[C@H]1O5			inhibition [2]: inactive
COc1ccc2c(c1)[C@]13CCN(S(=O)(=O)c4ccccc4)[C@H](C2)[C@]1(O)CC[C@H](N(C)C(=O)/C=C/c1ccoc1)C3		0.0112	Ki (Orexin receptor type 2): 0.294 µM; Ratio Ki (Homo sapiens): 26.1
COc1ccc2c(c1)[C@]13CCN(S(=O)(=O)c4ccccc4)[C@H](C2)[C@]1(O)CC[C@@H](N(C)C(=O)/C=C/c1ccoc1)C3	> 10	0.0316	
